Reference: patent publication US20220072008A1 (CEDARS-SINAI MEDICAL CENTER, priority 2020, published 2022)
Several values for one entry are separate records, joined by “and”; a condition that tells them apart may be missing. Equal values may be shown once.

Assays:
[1] = Randomized controlled pilot trial: serious adverse events and safety; assay type: in vivo, human
Protocol: Death, serious adverse events (SAE's), and grade 3 and 4 adverse events (AEs) are will be assessed and reported throughout the study.
Study patients were assessed daily for 15 days or until discharge, whichever came first. Discharged patients participated in phone or video study visits on days 7 and 15. Clinical assessment performed daily during hospitalization included evaluation of clinical status with daily vital signs, oxygen supplementation type and amount, need for mechanical ventilation, adverse events, and concomitant medications. WBCs, hemoglobin, platelets, electrolytes, BUN, creatinine, liver transaminases, and inflammatory markers, if obtained as part of SOC, were monitored on days 1 through 5, 7, and 15 while patients were hospitalized. […] Self-reported race and ethnicity, obtained from medical records, were collected as demographic information to assess possible differences in disease severity or treatment response. Serious adverse events and grade 3 and 4 adverse events as described in the Division of AIDS Table for Grading the Severity of Adult and Pediatric Adverse Events were recorded.

[2] = system: hospitalized men with COVID-19; test: Randomized controlled pilot trial: clinical status and clinical outcomes, progesterone + SOC vs SOC alone; assay type: in vivo, human
[3] = Control Group After Progesterone n = 9, SAEs after receiving progesterone (crossover)
[4] = 100 mg sc twice daily 5 days + SOC, n = 18
[5] = 100 mg sc twice daily 5 days + SOC, preliminary analysis N = 17
[6] = 7-point ordinal scale, preliminary analysis N = 17, P 0.003 vs SOC
[7] = 7-point ordinal scale, preliminary analysis N = 17, P <0.001 vs SOC
[8] = seven-point ordinal scale, from baseline, n = 18

SMILES: CC(=O)[C@H]1CC[C@H]2[C@@H]3CCC4=CC(=O)CC[C@]4(C)[C@H]3CC[C@]12C [Progesterone, progesterone]
- serious adverse events attributable to progesterone ([1]; 100 mg sc twice daily): no serious adverse events attributable to progesterone
- Any SAE or death [1, 3]: 3 (33.3) No. (%)
- SAE: Cardiac arrest [1, 3]: 0 (0.0) No. (%)
- SAE: Creatinine increased [1, 3]: 0 (0.0) No. (%)
- SAE: DVT [1, 3]: 1 (11.1) No. (%)
- SAE: Death [1, 3]: 0 (0.0) No. (%)
- SAE: Hypoperfusion [1, 3]: 2 (22.2) No. (%)
- SAE: Hypoxia [1, 3]: 3 (33.3) No. (%)
- SAE: Lymphocyte count decreased [1, 3]: 0 (0.0) No. (%)
- SAE: Pulmonary embolism [1, 3]: 0 (0.0) No. (%)
- Any SAE or death ([1]; Progesterone Group n = 18): 2 (11.1) No. (%)
- SAE: Cardiac arrest ([1]; Progesterone Group n = 18): 0 (0.0) No. (%)
- SAE: Creatinine increased ([1]; Progesterone Group n = 18): 0 (0.0) No. (%)
- SAE: DVT ([1]; Progesterone Group n = 18): 1 (5.6) No. (%)
- SAE: Death ([1]; Progesterone Group n = 18): 1 (5.6) No. (%)
- SAE: Hypoperfusion ([1]; Progesterone Group n = 18): 0 (0.0) No. (%)
- SAE: Hypoxia ([1]; Progesterone Group n = 18): 0 (0.0) No. (%)
- SAE: Lymphocyte count decreased ([1]; Progesterone Group n = 18): 0 (0.0) No. (%)
- SAE: Pulmonary embolism ([1]; Progesterone Group n = 18): 1 (5.6) No. (%)
- risk of thromboembolism ([1]; all patients on prophylactic-dose anticoagulation): not associated with any significant increase in the risk of thromboembolism
- tolerability of high serum levels ([1]; levels as high as 288 ng/mL): tolerated well and not associated with any adverse events
- deaths during the total 15-day surveillance period ([1]; progesterone group, not attributable to progesterone): one
- patients with thromboembolic events ([1]; progesterone group, two thromboembolic events in one patient): 5.6%
- Status on day 7: 1: Death [2, 4]: 1 (5.6) No. (%)
- Status on day 7: 2: Hospitalized; on invasive mechanical ventilation or ECMO [2, 4]: 0 (0.0) No. (%)
- Status on day 7: 3: Hospitalized; on high-flow nasal cannula [2, 4]: 2 (11.1) No. (%)
- Status on day 7: 4: Hospitalized; requiring supplemental oxygen (not HFNC) [2, 4]: 2 (11.1) No. (%)
- Status on day 7: 5: Hospitalized; not requiring supplemental oxygen [2, 4]: 4 (22.2) No. (%)
- Status on day 7: 6: Not hospitalized; limitations on activities [2, 4]: 7 (38.9) No. (%)
- Status on day 7: 7: Not hospitalized; no limitations on activities [2, 4]: 2 (11.1) No. (%)
- Status on day 15: 1: Death [2, 4]: 1 (5.6) No. (%)
- Status on day 15: 2: Hospitalized; on invasive mechanical ventilation or ECMO [2, 4]: 0 (0.0) No. (%)
- Status on day 15: 3: Hospitalized; on high-flow nasal cannula [2, 4]: 0 (0.0) No. (%)
- Status on day 15: 4: Hospitalized; requiring supplemental oxygen (not HFNC) [2, 4]: 1 (5.6) No. (%)
- Status on day 15: 5: Hospitalized; not requiring supplemental oxygen [2, 4]: 1 (5.6) No. (%)
- Status on day 15: 6: Not hospitalized; limitations on activities [2, 4]: 8 (44.4) No. (%)
- Status on day 15: 7: Not hospitalized; no limitations on activities [2, 4]: 7 (38.9) No. (%)
- Status at Day 7: 2-Hospitalized; on invasive mechanical ventilation or ECMO [2, 5]: 0 (0.0) n (%)
- Status at Day 7: 3-Hospitalized; on high flow nasal cannula [2, 5]: 2 (11.8) n (%)
- Status at Day 7: 4-Hospitalized; requiring supplemental oxygen (not HFNC) [2, 5]: 2 (11.8) n (%)
- Status at Day 7: 5-Hospitalized; not requiring supplemental oxygen [2, 5]: 4 (23.5) n (%)
- Status at Day 7: 6-Not hospitalized; limitations on activities [2, 5]: 7 (41.2) n (%)
- Status at Day 7: 7-Not hospitalized; no limitations on activities [2, 5]: 2 (11.8) n (%)
- Worst Status Prior to Day 7: 2-Hospitalized; on invasive mechanical ventilation or ECMO [2, 5]: 0 (0.0) n (%)
- Worst Status Prior to Day 7: 3-Hospitalized; on high flow nasal cannula [2, 5]: 5 (29.4) n (%)
- Worst Status Prior to Day 7: 4-Hospitalized; requiring supplemental oxygen (not HFNC) [2, 5]: 11 (64.7) n (%)
- Worst Status Prior to Day 7: 5-Hospitalized; not requiring supplemental oxygen [2, 5]: 1 (5.9) n (%)
- Change from Baseline at Day 7: 0 [2, 6]: 3 (17.6) n (%)
- Change from Baseline at Day 7: +1 [2, 6]: 3 (17.6) n (%)
- Change from Baseline at Day 7: +2 [2, 6]: 7 (41.2) n (%)
- Change from Baseline at Day 7: +3 [2, 6]: 2 (11.8) n (%)
- Change from Baseline at Day 7: −1 [2, 6]: 2 (11.8) n (%)
- Change from Baseline at Day 7: −2 [2, 6]: 0 (0.0) n (%)
- Change from Worst at Day 7: 0 [2, 7]: 3 (17.6) n (%)
- Change from Worst at Day 7: +1 [2, 7]: 4 (23.5) n (%)
- Change from Worst at Day 7: +3 [2, 7]: 2 (11.8) n (%)
- median hospital length of stay (LOS) ([2]; Progesterone Group n = 18): 7.0 days
- median number of days on supplemental oxygen ([2]; Progesterone Group n = 18): 4.5 (IQR, 2.0-6.0) days and 4.5 days
- patients remaining hospitalized at study completion ([2]; day 15, progesterone group): one
- cumulative probability of clinical improvement (increase of at least one point on the seven-point scale or live discharge) ([2]; first seven study days, Kaplan-Meier estimation, one noncompliant patient excluded, log-rank P=0.014 vs control): 0.76 (95% CI, 0.55-0.93)
- fewer days hospitalized than control ([2]; median 7.0 vs 9.5 days): 2.5 days
- patients remaining hospitalized by day 7 ([2]; nine of 18 patients): 50%
- median improvement more than control group, worst clinical status before day 7 vs status on day 7 ([2]; post hoc sensitivity analysis, 95% CI, 1.0-2.0, P=0.006): two
- improvement in clinical status at Day 7 compared to SOC ([2]; preliminary analysis, Wilcoxon rank-sum p=0.003): greater degree of improvement in clinical status at Day 7
- improvement from worst status prior to Day 7 compared to SOC ([2]; preliminary sensitivity analysis, p<0.001): greater improvement over the SOC group
- mechanical ventilation initiated ([2]; progesterone group, vs four of 22 control patients): none
- overall change in score from baseline to day 7, median better than control group ([2]; sensitivity analysis, last assessment before crossing over imputed as day 7 score, 95% CI, 0.0-2.0, P=0.010): 1.5 points
- Change in status on day 7: 0 [2, 8]: 3 (16.7) No. (%)
- Change in status on day 7: +1 [2, 8]: 3 (16.7) No. (%)
- Change in status on day 7: +2 [2, 8]: 7 (38.9) No. (%)
- Change in status on day 7: +3 [2, 8]: 2 (11.1) No. (%)
- Change in status on day 7: −1 [2, 8]: 2 (11.1) No. (%)
- Change in status on day 7: −2 [2, 8]: 0 (0.0) No. (%)
- Change in status on day 7: −3 [2, 8]: 1 (5.6) No. (%)
- Change in status on day 15: 0 [2, 8]: 1 (5.6) No. (%)
- Change in status on day 15: +1 [2, 8]: 4 (22.2) No. (%)
- Change in status on day 15: +2 [2, 8]: 4 (22.2) No. (%)
- Change in status on day 15: +3 [2, 8]: 7 (38.9) No. (%)
- Change in status on day 15: +4 [2, 8]: 1 (5.6) No. (%)
- Change in status on day 15: −1 [2, 8]: 0 (0.0) No. (%)
- Change in status on day 15: −2 [2, 8]: 0 (0.0) No. (%)
- Change in status on day 15: −3 [2, 8]: 1 (5.6) No. (%)
- Change in status on day 7, median (IQR) ([2]; seven-point ordinal scale, from baseline, n = 18, P .024 vs control): 1.5 (0.0 to 2.0)
- Change in status on day 15, median (IQR) ([2]; seven-point ordinal scale, from baseline, n = 18, P .150 vs control): 2.0 (1.0 to 3.0)
- overall improvement in median clinical status score from baseline to day 7 compared with control ([2]; seven-point ordinal scale, 95% CI, 0.0-2.0, P=0.024): 1.5 points
